# Data reported in paper PMC9468151, “Identification of a binding site on soluble RANKL that can be targeted to inhibit soluble RANK-RANKL interactions and treat osteoporosis” (Nature Communications, 2022).
# Several values for one entry are separate records, joined by “and”; a condition that tells them apart may be missing. Equal values may be shown once.
# Assays:
# T lymphocyte = T lymphocyte cell proliferation assay (CFSE, CD4+/CD8+ flow cytometry); assay type: cell-based, human
# Protocol: T lymphocyte cell proliferation assay was performed according to a reported method[58] with some modification. Briefly, 5 × 10^6 cells /mL cells were stained 2.5 μM CFSE (Tonbo Biosciences) and incubated at 37 °C for 12 min. Then washed and discarded the supernatant and adjusted the CFSE stained cell to 1.75 × 10^6 cells /mL. Cells were diluted in 1640 completed medium containing 5 μg/mL anti-CD3 antibody (Tonbo Biosciences) to 3 × 10^5 cells/mL and seed in a 96-well plate or 24-well plate that pre-packaged 0.4 μg/well anti-CD28 antibody and 1.6 μg anti-CD28 antibody (24-well) (Tonbo Biosciences). Cells were then cultured for 3 days, 9 days or 12 days. Subsequently, the proportion of CD4^+ and CD8^+ cells was determined by flow cytometry (Beckman Coulter, FC500) according to manufacturer’s instruction of PE-Cyanine7 anti-Human CD8a and PE anti-Human CD4 antibodies (Tonbo Biosciences). Data analyzing was performed by using CXP software (Beckman Coulter, Supplementary Fig. 8).
# [1] = test system: mRANKL induced osteoclastogenesis; assay: mRANKL induced osteoclastogenesis assay; assay type: cell-based, mouse; details: for OC inhibitory ratio, mRANKL induced (fig. 3d IC50 curve data): replicates
# [2] = Healthy donor 1, 12 day, S3-15 10
# [3] = Healthy donor 2, 9 day, S3-15 0.2
# [4] = Healthy donor 2, 9 day, S3-15 1
# [5] = Healthy donor 2, 9 day, S3-15 5
# [6] = Healthy donor 2, 9 day, S3-15 10
# [7] = cancer patient donors 1, 3 day, S3-15 conc. 0.2
# [8] = cancer patient donors 1, 3 day, S3-15 conc. 1
# [9] = cancer patient donors 1, 3 day, S3-15 conc. 5
# [10] = cancer patient donors 1, 3 day, S3-15 conc. 10
# [11] = healthy donors 2, 9 day, S3-15 conc. 0.2
# [12] = healthy donors 2, 9 day, S3-15 conc. 1
# [13] = healthy donors 2, 9 day, S3-15 conc. 5
# [14] = healthy donors 2, 9 day, S3-15 conc. 10
smiles,measurement,setting,value
CC(=O)/C(=N\Nc1ccccc1C(=O)O)C(=O)Nc1ccccn1 [S3-15],CD8+ cells in total cells (%),T lymphocyte; [2],25.46% and 18.53% and 18.26% and 16.63%
same,CD8+cells in CFSE-cells (%),T lymphocyte; [2],73.6% and 72.27% and 73.36% and 76.51%
same,CFSE- cells in total cells (%),T lymphocyte; [2],23.52% and 17.38% and 18.28% and 16.8%
same,CD8+ cells in total cells (%),T lymphocyte; [3],60.09% and 60.2% and 40.04%
same,CD8+cells in CFSE-cells (%),T lymphocyte; [3],54.45% and 45.56% and 52.87%
same,CFSE- cells in total cells (%),T lymphocyte; [3],42.85% and 34.53% and 42.91%
same,CD8+ cells in total cells (%),T lymphocyte; [4],57.52% and 60.07% and 56.11%
same,CD8+cells in CFSE-cells (%),T lymphocyte; [4],48.8% and 34.73% and 39.45%
same,CFSE- cells in total cells (%),T lymphocyte; [4],48.46% and 65.6% and 38.41%
same,CD8+ cells in total cells (%),T lymphocyte; [5],39.84% and 41.04% and 43.72%
same,CD8+cells in CFSE-cells (%),T lymphocyte; [5],45.39% and 36.07% and 59.1%
same,CFSE- cells in total cells (%),T lymphocyte; [5],43.47% and 38.16% and 54.05%
same,CD8+ cells in total cells (%),T lymphocyte; [6],61.43% and 57.64% and 58.69%
same,CD8+cells in CFSE-cells (%),T lymphocyte; [6],58.1% and 47.19% and 40.24%
same,CFSE- cells in total cells (%),T lymphocyte; [6],51.79% and 37.98% and 32.24%
same,CD4+cells in total cells (%),T lymphocyte; [7],12.08% and 10.6% and 16.64% and 9.84%
same,CFSE-CD4+cells in CFSE-cells (%),T lymphocyte; [7],2.66% and 4.81% and 10.71% and 8.92%
same,CD4+cells in total cells (%),T lymphocyte; [8],18.36% and 15% and 12.2% and 13.48%
same,CFSE-CD4+cells in CFSE-cells (%),T lymphocyte; [8],2.71% and 4.16% and 9.18% and 4.63%
same,CD4+cells in total cells (%),T lymphocyte; [9],12.53% and 13.43% and 14.21% and 19.52%
same,CFSE-CD4+cells in CFSE-cells (%),T lymphocyte; [9],4.9% and 5.71% and 2.54% and 4.68%
same,CD4+cells in total cells (%),T lymphocyte; [10],8.57% and 13.89% and 11.58% and 13%
same,CFSE-CD4+cells in CFSE-cells (%),T lymphocyte; [10],6.23% and 7.1% and 4.66% and 4.48%
same,CD4+cells in total cells (%),"T lymphocyte; healthy donors 1, 3 day, S3-15 conc. 0.2",58.71% and 65.57% and 73.86% and 89.25%
same,CD4+cells in total cells (%),"T lymphocyte; healthy donors 1, 3 day, S3-15 conc. 1",88.98% and 73.53% and 85.9% and 87.87%
same,CD4+cells in total cells (%),"T lymphocyte; healthy donors 1, 3 day, S3-15 conc. 5",88.97% and 73.33% and 75.77% and 81.04%
same,CD4+cells in total cells (%),"T lymphocyte; healthy donors 1, 3 day, S3-15 conc. 10",84.3% and 76.41% and 71.29%
same,CFSE-CD4+cells in CFSE-cells (%),"T lymphocyte; healthy donors 1, 12 day, S3-15 conc. 0.2",11.71% and 10.81% and 13.35% and 13.65%
same,CFSE-CD4+cells in CFSE-cells (%),"T lymphocyte; healthy donors 1, 12 day, S3-15 conc. 1",10.81% and 12.31% and 11.84% and 10.58%
same,CFSE-CD4+cells in CFSE-cells (%),"T lymphocyte; healthy donors 1, 12 day, S3-15 conc. 5",11% and 11.24% and 11.79% and 10.58%
same,CFSE-CD4+cells in CFSE-cells (%),"T lymphocyte; healthy donors 1, 12 day, S3-15 conc. 10",15.92% and 12.12% and 12.19% and 12.32%
same,CD4+cells in total cells (%),T lymphocyte; [11],20.78% and 19.93% and 21.03%
same,CFSE-CD4+cells in CFSE-cells (%),T lymphocyte; [11],37.84% and 45.82% and 32.47%
same,CD4+cells in total cells (%),T lymphocyte; [12],25.04% and 25.92% and 25.62%
same,CFSE-CD4+cells in CFSE-cells (%),T lymphocyte; [12],42.79% and 60.67% and 51.42%
same,CD4+cells in total cells (%),T lymphocyte; [13],24.48% and 26.48% and 22.29%
same,CFSE-CD4+cells in CFSE-cells (%),T lymphocyte; [13],46.81% and 55.67% and 30.69%
same,CD4+cells in total cells (%),T lymphocyte; [14],21.17% and 21.09% and 21.21%
same,CFSE-CD4+cells in CFSE-cells (%),T lymphocyte; [14],34.98% and 45.24% and 51.76%
same,lymphocyte proliferation,"T lymphocyte; human lymphocytes, in words",did not change lymphocyte proliferation
same,"OC inhibitory ratio, mRANKL induced (fig. 3d IC50 curve data)",[1]; 0.0023464 μM,-1.8319 and -1.185 and 3.987
same,"OC inhibitory ratio, mRANKL induced (fig. 3d IC50 curve data)",[1]; 0.00774313 μM,-0.2155 and 3.341 and 0.431
same,"OC inhibitory ratio, mRANKL induced (fig. 3d IC50 curve data)",[1]; 0.0255523 μM,1.724 and 9.483 and -1.8319
same,"OC inhibitory ratio, mRANKL induced (fig. 3d IC50 curve data)",[1]; 0.0843226 μM,10.4526 and 18.2112 and 10.1293
same,"OC inhibitory ratio, mRANKL induced (fig. 3d IC50 curve data)",[1]; 0.278265 μM,19.8276 and 9.806 and 12.7155
same,"OC inhibitory ratio, mRANKL induced (fig. 3d IC50 curve data)",[1]; 0.918274 μM,19.8276 and 9.806 and 12.7155
same,"OC inhibitory ratio, mRANKL induced (fig. 3d IC50 curve data)",[1]; 3.0303 μM,46.6595 (2×) and 50.5388
same,"OC inhibitory ratio, mRANKL induced (fig. 3d IC50 curve data)",[1]; 10 μM,62.8233 (2×) and 61.5302
same,"OC inhibitory ratio, mRANKL induced (fig. 3d IC50 curve data)",[1]; 33 μM,90.3017 and 88.3621 and 89.6552
same,IC50,"[1]; Mus musculus, +mRANKL",4.14 µM
